Assay results: patent publication US20240174642A1, “HETEROCYCLIC COMPOUNDS CAPABLE OF ACTIVATING STING” (Boehringer Ingelheim International GmbH, priority 2022, published 2024)
Where two headings read alike, the source gives them in different places.

Tests used:
[1] = test system: dog STING (dSTING); assay: Dog differential scanning fluorimetry (DSF) assay, thermal shift of dog STING protein; type: binding; conditions: 100 μM compound, 3 μM recombinant dog STING (residues 149 to 375), 5× SYPRO Orange, 2% DMSO
Description: The protein used for the biophysical experiments was a recombinant dog STING protein comprising its cytosolic cGAMP binding ectodomain. A codon optimized DNA sequence (for expression in Escherichia coli) encoding amino acid residues 149 to 375 of dog STING was synthesized by GeneArt (Regensburg, Germany) and inserted into a pET17b E. coli expression vector. The protein construct encodes an N-terminal 8× His-tag followed by tobacco etch virus protease (TEV) cleavage site and the above STING gene sequence. The resulting protein sequence for the used dog STING protein (SEQ ID No. 1) is listed below:
For expression of the above recombinant dog STING, the construct was transformed into E. coli BL21 DE3 strain and grown in shake flasks in LB-medium at 15° C. Expression was induced by addition of isopropyl β-D-1-thiogalactopyranoside to a final concentration of 1 mM and cultures shaken overnight. Cell pellets were centrifuged and stored at −70° C. until further use. Protein was purified by cell thawing in lysis buffer (20 mM TRIS-HCl, pH 8, 500 mM NaCl, 1 mM DTT, 0.5 mg/ml lysozyme, Complete Protease Inhibitor (Roche) and DNase (Roche)), followed by metal affinity purification using Ni-NTA resins and elution buffer consisting of 20 mM TRIS-HCl, pH 8, 500 mM NaCl, 1 mM DTT, 300 mM imidazole. Cleavage of the His-Tag using TEV-protease took place during dialysis in size exclusion buffer (20 mM TRIS-HCl, pH 8, 100 mM NaCl, 1 mM DTT) over night. To further purify the target protein a reverse Nickel affinity column was used and the flow through was applied to a size exclusion chromatography. The peak fraction was collected and concentrated to 5 mg/mL.
Dye fluorescence is quenched in aqueous environment and increases upon association of the dye with the hydrophobic parts of the unfolding protein. […] The inflection point of the curve represents the “melting” temperature of the protein (Tm) which is calculated numerically using the Boltzmann equation.
The thermal stability of the dog STING protein was measured in assay buffer containing 20 mM Tris, 150 mM NaCl at pH7.5. The assay uses 384-Well qPCR Plates (Catalog #781358, BRAND), Microseal®‘B’ Adhesive Seals for PCR Plates (Catalog #MSB-1001, BIO-RAD) and was run on a CFX384 Real-Time System (Bio-Rad). A DMSO stock solution of SYPRO orange (SIGMA 55692-500UL) was prepared. Compound stock solutions (10 mM in DMSO) were diluted 1:2 in DMSO to an intermediate compound concentration of 5 mM and then further diluted 1:40 in assay buffer resulting in a compound concentration of 125 μM and 2.5% DMSO. Fluorescent dye stock solution (5000× SYPRO Orange) was then mixed with target protein and buffer to a concentration of 15 μM Protein and 25× SYPRO Orange. 2 μl of this protein-dye-mixture was added to 8 μl compound solution. Final volume was 10 μL. 3-6 well positions were used as negative control (protein with 2% DMSO). The plates were prepared for duplicate measurement and centrifuged for 2 min at 1000 g. In the measurement, 160 cycles of 0.5° C. were used (temperature ramp 15 s/cycle, 15° C. to 95° C.).
Final Assay concentrations for compound characterization were 100 μM compound, 3 μM target protein, 5× SYPRO Orange, and 2% DMSO in 10 μl. All dispensing steps were performed using a HamiltonStar pipetting robot (Hamilton).
Dissociation curves were processed in Bio-Rad CFX Manager. Peak type was set to “negative”. Compound codes for screen were assigned in the plate layout.
Two replicates of TM measurements were averaged, and the standard deviation was calculated. In cases of SD>1.5° C. the measurement was repeated.
The melting point (Tm) obtained for STING protein alone was subtracted from T obtained for protein incubated with ligand to generate ΔTm values.

[2] = test system: STING; assay: Dog whole blood (dWB) assay, IFNb secretion by ELISA; type: cell-based; conditions: 4 h incubation at 37° C., % control relative to cGAMP stimulated control, read-out: EC50, cytokine secretion in dog whole blood (dWB) culture system as determined by canine Interferon-beta (IFNb) ELISA
Experimental: In this assay, freshly collected canine blood is incubated with a STING agonist, and interferon beta levels in the supernatant are quantified by ELISA. […] In accordance with the invention, a combination of a high dDSF and low dWB is especially favorable.
For the detection of STING activation in physiological environment dog whole blood (dWB) was stimulated by the cyclic dinucleotide cGAMP or a test compound. Pathway activity was monitored by measuring the IFNb production.
Compounds were delivered as 10 mM DMSO solution, diluted and transferred by using an Echo acoustic dispenser to the 384well assay plate (Greiner #781182), pre-filled with 10 μl 1× HBSS in each well (10× HBSS (+Ca/+Mg), #14065-049, Gibco). Typically, 8 concentrations were used with the highest concentration at 10 μM in the final assay volume followed by approximately 1:4 dilution steps. DMSO concentration was set to 0.1% in the final assay volume. The 384-well assay plate contained 20 test compounds and DMSO in control and cGAMP standard wells. The dog whole blood was collected as Na-Citrate blood (e.g., 3.8% in Monovettes from Sarstedt) and kept at 4° C. overnight until use in the assay. 80 μl of the whole blood samples were transferred to each well of the 384-well assay plates filled with compound/1×HBSS. Blood plates were kept at room temperature for 60 minutes and continuous shaking with 450 rpm, covered with the lid, but not sealed. A 10× cGAMP assay solution was diluted from a 2 mM stock solution in 1×HBSS immediately before use at room temperature. 10 μl of the 10× cGAMP/HBSS were added to the high control wells, whereas HBSS only was added to all compound and low control wells. After covering assay plates with the lid, blood plates were kept for a 4 h incubation at 37° C. in the incubator, without shaking. For the detection of IFNb in dog plasma the ELISA Kit for Canine Interferon Beta (Biotrend #SEA222Ca) was used. Whole blood assay plates were centrifuged at 1000 g for 10 minutes at 8° C. 40 μl of supernatant was transferred with a 96 well pipetting robotics from the 384 well whole blood plate to the corresponding 96 well ELISA plate, pre-filled with […] assay diluent in each well. Plates were sealed with microplate seals and kept at 4° C. overnight again. ELISA plates were brought to room temperature, followed by a 1 h incubation at 37° C. in the incubator. Detection Reagent A working solution was prepared by diluting Detection Reagent A 1:100 in Assay Reagent A. Liquid was then removed from the 96 well ELISA plate to add 100 μL Detection Reagent A working solution to each well. ELISA plates were covered with the plate sealer and incubated for 1 hour at 37° C. in the incubator. The 1× Wash buffer was prepared by diluting the 30× Wash Buffer Concentrate in H2O. Detection Reagent B working solution was prepared by diluting Detection Reagent B 1:100 in Assay Reagent B. The ELISA plates were washed three times with 350 μl wash buffer and afterwards inverted and blotted against absorbent paper to remove any liquid. 100 μL of Detection Reagent B working solution was added to each well of the ELISA plates, which are then covered with the plate sealer and incubated for 30 minutes at 37° C. in the incubator. After incubation the ELISA assay plates were washed five times with 350 μl wash buffer and were again inverted and blotted against absorbent paper to remove any remaining liquid. 90 μL of TMB Substrate was added to each well of the ELISA plates, which were then covered with the plate sealer and incubated for 15 minutes at 37° C. in the incubator. The reaction was stopped by adding 50 μL stop solution and absorbance was measured at 450 nm immediately.
For data evaluation and calculation, % control calculation of each well was based on the mean of high (cGAMP stimulated control) and mean of low (unstimulated control) controls by using the following standard 4 parameter logistic regression formula: […]

## CC(=O)N1C[C@H]2C[C@@H]1CN2c1ccc(-n2nc(-c3cccc4nn(C)cc34)c3cccc(C)c32)cn1 [Example 11, 1-[(1R,4R)-5-(5-{2″,7-dimethyl-1H,2″H-[3,4″-biindazol]-1-yl}pyridin-2-yl)-2,5-diazabicyclo[2.2.1]heptan-2-yl]ethan-1-one]
[1]
  Delta TM, interaction with dog STING as determined by DSF (dDSF): 28.3 °C
[2]
  EC50: 620 nM

## CC(=O)N1CC2CCC1CN2c1ccc(-n2nc(-c3cccc4nn(C)cc34)c3cccc(C)c32)cn1 (stereo not drawn) [Example 13, 1-[5-(5-{2′,7-dimethyl-1H,2′H-[3,4′-biindazol]-1-yl}pyridin-2-yl)-2,5-diazabicyclo[2.2.2]octan-2-yl]ethan-1-one]
[1]
  Delta TM, interaction with dog STING as determined by DSF (dDSF): 28.3 °C
[2]; Canis lupus familiaris
  EC50: 282 nM

## (1S,4R,5R)-2-(5-{2″,7-dimethyl-1H,2″H-[3,4″-biindazol]-1-yl}pyridin-2-yl)-2-azabicyclo[2.2.1]heptane-5-carboxylic acid and 1R,4S,5S)-2-(5-{2′,7-dimethyl-1H,2′H-[3,4′-biindazol]-1-yl}pyridin-2-yl)-2-azabicyclo[2.2.1]heptane-5-carboxylic acid [Example 5]
[1]
  Delta TM, interaction with dog STING as determined by DSF (dDSF): 33.5 °C
[2]
  EC50: 529 nM
